Measurements as given in ChEMBL document CHEMBL1909570, “Synthesis and antibacterial activity of N4-mono alkyl derivatives of novel glycopeptide LYV07ww01” (2011).
Values after ≈ are worked out from the molar mass of the structure shown.

Tests used:
Type in all cases: functional
Streptococcus = assay: Antibacterial activity against Streptococcus gamma 32206 by CLSI agar microdilution method
Streptococcus pneumoniae [1] = assay: Antibacterial activity against Streptococcus pneumoniae 31002 by CLSI agar microdilution method
[2] = test system: Staphylococcus epidermidis; assay: Antibacterial activity against Staphylococcus epidermidis 26069 by CLSI agar microdilution method
Staphylococcus aureus = assay: Antibacterial activity against Staphylococcus aureus 26003 by CLSI agar microdilution method
Staphylococcus = assay: Antibacterial activity against Staphylococcus albus 26101 by CLSI agar microdilution method
Enterococcus faecium [3] = assay: Antibacterial activity against Enterococcus faecium 32220 by CLSI agar microdilution method
Enterococcus faecalis [4] = assay: microbe, parasite or virus in culture; details: ATCC 29212
Description: Antibacterial activity against vancomycin-sensitive Enterococcus faecalis ATCC 29212 by CLSI agar microdilution method

Enterococcus faecium [5] = assay: Antibacterial activity against vancomycin-sensitive Enterococcus faecium ATCC 35667 by CLSI agar microdilution method
Streptococcus pneumoniae [6] = assay: Antibacterial activity against penicillin-intermediate Streptococcus pneumoniae ATCC 49619 by CLSI broth microdilution method
Streptococcus pneumoniae [7] = assay: Antibacterial activity against penicillin-resistant Streptococcus pneumoniae MSPN 0003 by CLSI broth microdilution method
Enterococcus faecium [8] = assay: Antibacterial activity against vancomycin-resistant Enterococcus faecium MEFA 0039 by CLSI agar microdilution method
Enterococcus faecalis [9] = assay: microbe, parasite or virus in culture; details: ATCC 51299
Description: Antibacterial activity against vancomycin-resistant Enterococcus faecalis ATCC 51299 by CLSI agar microdilution method

## CCCCCCCCN[C@@]1(C)C[C@H](O[C@H]2[C@H](Oc3c4cc5cc3Oc3ccc(cc3Cl)[C@@H](O[C@H]3C[C@](C)(N)[C@H](O)[C@H](C)O3)[C@@H]3NC(=O)[C@H](NC(=O)[C@@H]5NC(=O)[C@H](CC(N)=O)NC(=O)[C@H](NC(=O)[C@@H](CC(C)C)NC)[C@H](O)c5ccc(c(Cl)c5)O4)c4ccc(O)c(c4)-c4c(O)cc(O)cc4[C@H](C(=O)O)NC3=O)O[C@H](CO)[C@@H](O)[C@@H]2O)O[C@@H](C)[C@H]1O
Streptococcus
  MIC: 1.56 µg/mL (≈ 0.915 µM)
Streptococcus pneumoniae [1]
  MIC: 0.39 µg/mL (≈ 0.229 µM)
[2]
  MIC: > 25 µg/mL
Staphylococcus aureus
  MIC: 3.13 µg/mL (≈ 1.84 µM)
Staphylococcus
  MIC: 3.13 µg/mL (≈ 1.84 µM)
Enterococcus faecium [3]
  MIC: 1.56 µg/mL (≈ 0.915 µM)

## CCCCCCCCCN[C@@]1(C)C[C@H](O[C@H]2[C@H](Oc3c4cc5cc3Oc3ccc(cc3Cl)[C@@H](O[C@H]3C[C@](C)(N)[C@H](O)[C@H](C)O3)[C@@H]3NC(=O)[C@H](NC(=O)[C@@H]5NC(=O)[C@H](CC(N)=O)NC(=O)[C@H](NC(=O)[C@@H](CC(C)C)NC)[C@H](O)c5ccc(c(Cl)c5)O4)c4ccc(O)c(c4)-c4c(O)cc(O)cc4[C@H](C(=O)O)NC3=O)O[C@H](CO)[C@@H](O)[C@@H]2O)O[C@@H](C)[C@H]1O
Streptococcus
  MIC: 1.56 µg/mL (≈ 0.908 µM)
Streptococcus pneumoniae [1]
  MIC: 1.56 µg/mL (≈ 0.908 µM)
[2]
  MIC: > 25 µg/mL
Staphylococcus aureus
  MIC: 3.13 µg/mL (≈ 1.82 µM)
Staphylococcus
  MIC: 6.25 µg/mL (≈ 3.64 µM)
Enterococcus faecium [3]
  MIC: > 25 µg/mL

## CCCCCCCCCCN[C@@]1(C)C[C@H](O[C@H]2[C@H](Oc3c4cc5cc3Oc3ccc(cc3Cl)[C@@H](O[C@H]3C[C@](C)(N)[C@H](O)[C@H](C)O3)[C@@H]3NC(=O)[C@H](NC(=O)[C@@H]5NC(=O)[C@H](CC(N)=O)NC(=O)[C@H](NC(=O)[C@@H](CC(C)C)NC)[C@H](O)c5ccc(c(Cl)c5)O4)c4ccc(O)c(c4)-c4c(O)cc(O)cc4[C@H](C(=O)O)NC3=O)O[C@H](CO)[C@@H](O)[C@@H]2O)O[C@@H](C)[C@H]1O
Streptococcus
  MIC: 6.25 µg/mL (≈ 3.61 µM)
Streptococcus pneumoniae [1]
  MIC: 6.25 µg/mL (≈ 3.61 µM)
[2]
  MIC: > 25 µg/mL
Staphylococcus aureus
  MIC: 6.25 µg/mL (≈ 3.61 µM)
Staphylococcus
  MIC: 6.25 µg/mL (≈ 3.61 µM)
Enterococcus faecium [3]
  MIC: > 25 µg/mL

## CCCCCCCCCCNCCN[C@@]1(C)C[C@H](O[C@H]2[C@H](Oc3c4cc5cc3Oc3ccc(cc3Cl)[C@@H](O[C@H]3C[C@](C)(N)[C@H](O)[C@H](C)O3)[C@@H]3NC(=O)[C@H](NC(=O)[C@@H]5NC(=O)[C@H](CC(N)=O)NC(=O)[C@H](NC(=O)[C@@H](CC(C)C)NC)[C@H](O)c5ccc(c(Cl)c5)O4)c4ccc(O)c(c4)-c4c(O)cc(O)cc4[C@H](C(=O)O)NC3=O)O[C@H](CO)[C@@H](O)[C@@H]2O)O[C@@H](C)[C@H]1O
Streptococcus
  MIC: 3.13 µg/mL (≈ 1.76 µM)
Streptococcus pneumoniae [1]
  MIC: 3.13 µg/mL (≈ 1.76 µM)
[2]
  MIC: > 25 µg/mL
Staphylococcus aureus
  MIC: 6.25 µg/mL (≈ 3.52 µM)
Staphylococcus
  MIC: 6.25 µg/mL (≈ 3.52 µM)
Enterococcus faecium [3]
  MIC: 12.5 µg/mL (≈ 7.04 µM)

## CN[C@H](CC(C)C)C(=O)N[C@H]1C(=O)N[C@@H](CC(N)=O)C(=O)N[C@H]2C(=O)N[C@H]3C(=O)N[C@H](C(=O)N[C@@H](C(=O)O)c4cc(O)cc(O)c4-c4cc3ccc4O)[C@H](O[C@H]3C[C@](C)(N)[C@H](O)[C@H](C)O3)c3ccc(c(Cl)c3)Oc3cc2cc(c3O[C@@H]2O[C@H](CO)[C@@H](O)[C@H](O)[C@H]2O[C@H]2C[C@](C)(NC/C=C/c3ccccc3)[C@H](O)[C@H](C)O2)Oc2ccc(cc2Cl)[C@H]1O
Streptococcus
  MIC: 1.56 µg/mL (≈ 0.913 µM)
Streptococcus pneumoniae [1]
  MIC: 1.56 µg/mL (≈ 0.913 µM)
[2]
  MIC: > 25 µg/mL
Staphylococcus aureus
  MIC: 3.13 µg/mL (≈ 1.83 µM)
Staphylococcus
  MIC: 3.13 µg/mL (≈ 1.83 µM)
Enterococcus faecium [3]
  MIC: 3.13 µg/mL (≈ 1.83 µM)

## CN[C@H](CC(C)C)C(=O)N[C@H]1C(=O)N[C@@H](CC(N)=O)C(=O)N[C@H]2C(=O)N[C@H]3C(=O)N[C@H](C(=O)N[C@@H](C(=O)O)c4cc(O)cc(O)c4-c4cc3ccc4O)[C@H](O[C@H]3C[C@](C)(N)[C@H](O)[C@H](C)O3)c3ccc(c(Cl)c3)Oc3cc2cc(c3O[C@@H]2O[C@H](CO)[C@@H](O)[C@H](O)[C@H]2O[C@H]2C[C@](C)(NCc3cccs3)[C@H](O)[C@H](C)O2)Oc2ccc(cc2Cl)[C@H]1O
Streptococcus
  MIC: 25 µg/mL (≈ 14.8 µM)
Streptococcus pneumoniae [1]
  MIC: 6.25 µg/mL (≈ 3.7 µM)
[2]
  MIC: > 25 µg/mL
Staphylococcus aureus
  MIC: 25 µg/mL (≈ 14.8 µM)
Staphylococcus
  MIC: > 25 µg/mL
Enterococcus faecium [3]
  MIC: 12.5 µg/mL (≈ 7.4 µM)

## CN[C@H](CC(C)C)C(=O)N[C@H]1C(=O)N[C@@H](CC(N)=O)C(=O)N[C@H]2C(=O)N[C@H]3C(=O)N[C@H](C(=O)N[C@H](C(=O)O)c4cc(O)cc(O)c4-c4cc3ccc4O)[C@H](O)c3ccc(c(Cl)c3)Oc3cc2cc(c3O[C@@H]2O[C@H](CO)[C@@H](O)[C@H](O)[C@H]2O[C@H]2C[C@](C)(N)[C@H](O)[C@H](C)O2)Oc2ccc(cc2Cl)[C@H]1O.Cl [VANCOMYCIN HYDROCHLORIDE]
Enterococcus faecalis [4]
  MIC: 1 µg/mL
Enterococcus faecium [5]
  MIC: 0.25 µg/mL
Streptococcus
  MIC: 6.25 µg/mL
Streptococcus pneumoniae [1]
  MIC: 0.39 µg/mL
[2]
  MIC: > 25 µg/mL
Staphylococcus aureus
  MIC: 0.78 µg/mL
Staphylococcus
  MIC: 3.13 µg/mL
Streptococcus pneumoniae [6]
  MIC: 0.125 µg/mL
Streptococcus pneumoniae [7]
  MIC: 0.25 µg/mL
Enterococcus faecium [3]
  MIC: 6.25 µg/mL
Enterococcus faecium [8]
  MIC: > 32 µg/mL
Enterococcus faecalis [9]
  MIC: 8 µg/mL
